Results from paper PMC10383801 (Pharmaceutics, 2023).

Columns and labels:
[1] = stated without reference; cited from earlier work
Source text: HIP of peptides with surfactants is an efficient tool to enhance its lipophilic characteristics. […] These six positively charged amino acids (two Histidine, one Arginine, one Lysine and two N-terminal amino aci ...

diabetic rats = test: Antidiabetic effect study in diabetic rats; type: in vivo; conditions: streptozotocin-induced diabetic rats; for reduction in blood glucose level (in words): 5 rats per group, glucometer, 0-8 h
Method: Glucose lowering effect of orally administered optimized SMEDDS was monitored in diabetic rats. Study was performed with the approval Pharmacy Ethical Committee, Bahauddin Zakariya University, Multan, Pakistan (249/PEC/2023 dated 25 March 2023). Diabetes was introduced in rats weighing 220–240 g by injecting streptozotocin solution at the dose of (45 mg/kg body weight) intraperitoneally. Fasting blood glucose (FBG) level of all the rats was measured after 3 days using glucometer (AccuChek Performa, Hoffman-La Roche, Basel, Switzerland). Rats with FBG level 200–250 mg/dL were considered diabetic and were included in the study. All rats were fasted over night before experiment and start of treatment. Diabetic rats were divided randomly in 5 groups with 5 rats per group. […] Blood samples were collected at regular time intervals, i.e., 0, 0.5, 1, 1.5, 2, 3, 4, 6, and 8 h and measured for hypoglycemic effects using glucometer.

Solubility in n-octanol = type: physicochemical; conditions: insulin measured spectrophotometrically at 270 nm, sentence also cites refs 14, 15
Method: After 4 h of magnetic stirring, the mixture was centrifuged for 30 min at 5000 rpm.

For Human insulin, the isoelectric point [1] is given as 5.35–5.45, the “reduction in blood glucose level (in words)” value (diabetic rats; oral, 50 IU/kg insulin equivalent) is given as “negligible anti-diabetic effect” and the “reduction in blood glucose level (in words)” value (diabetic rats; subcutaneous, 5 IU/kg) is given as “Maximum reduction in blood glucose level”. The “duration of glucose lowering effect” value (diabetic rats; subcutaneous, 5 IU/kg, entire duration of the experiment) was “up to 8 h” and the solubility in n-octanol (Solubility in n-octanol) was roughly 17 µg/mL.
